Results: BindingDB's records for doi:10.7270/Q24T6GSH (The Scripps Research Institute Molecular Screening Center, 2007)

Biological target: T1, Isoform 2 of Nuclear receptor ROR-alpha (Alpha-2) (Homo sapiens, UniProt P35398)
T1 sequence (P35398 whole entry): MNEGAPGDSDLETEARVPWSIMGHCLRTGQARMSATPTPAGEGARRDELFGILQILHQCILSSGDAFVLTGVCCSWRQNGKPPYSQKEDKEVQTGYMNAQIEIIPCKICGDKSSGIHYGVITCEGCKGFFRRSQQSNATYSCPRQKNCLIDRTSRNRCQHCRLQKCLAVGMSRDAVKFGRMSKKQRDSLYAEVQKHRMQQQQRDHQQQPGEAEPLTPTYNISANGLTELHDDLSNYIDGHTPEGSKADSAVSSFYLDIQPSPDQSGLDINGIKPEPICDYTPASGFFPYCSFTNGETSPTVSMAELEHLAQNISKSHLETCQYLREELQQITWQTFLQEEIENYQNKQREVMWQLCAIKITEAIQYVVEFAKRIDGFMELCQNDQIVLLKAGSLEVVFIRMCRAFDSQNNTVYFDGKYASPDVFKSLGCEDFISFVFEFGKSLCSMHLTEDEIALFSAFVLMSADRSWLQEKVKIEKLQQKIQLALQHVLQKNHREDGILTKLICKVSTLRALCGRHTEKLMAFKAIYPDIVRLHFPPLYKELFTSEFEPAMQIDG
Test: activators of RORA ligand-binding domain fusion – cell-based, CHO-K1, Gal4-RORA LBD, luciferase luminescence, counter-screen for SF-1 activator project, dose response (AID 675)

[1] = inactive by the depositor's call

Row | Compound | EC50 [nM] | EC50 [1] [nM]
1 | COc1ccc(C(=O)CC=Nc2cccc(C)n2)cc1OC | 749 | 
2 | CC(=O)c1c(C)[nH]c(C(=O)Nc2ccc3c(c2)OCCO3)c1C | 400 | 
3 | COc1ccc2c(c1OC)C(=O)N1c3ccccc3SC21 (stereo not given) [1,2-dimethoxy-4bH-isoindolo[1,2-b][1,3]benzothiazol-11-one] | 766 | 
4 | O=C(CSc1ccccn1)c1ccc2c(c1)OCO2 [1-(1,3-benzodioxol-5-yl)-2-(2-pyridinylthio)ethanone] | 1230 | 
5 | O=C(COc1ncnc2ccccc12)c1ccc2c(c1)OCCO2 [1-(2,3-dihydro-1,4-benzodioxin-6-yl)-2-(4-quinazolinyloxy)ethanone] | 615 | 
6 | CCCn1c(C)cc(C(=O)COc2ncnc3sccc23)c1C [1-(2,5-dimethyl-1-propyl-3-pyrrolyl)-2-(4-thieno[2,3-d]pyrimidinyloxy)ethanone] | 1990 | 
7 | N#CCc1ccc(NC(=O)Nc2cccc(Cl)c2)cc1 [1-(3-chlorophenyl)-3-[4-(cyanomethyl)phenyl]urea] | 1650 | 
8 | CN(C)c1ccc(NC(=O)Nc2cccc(Cl)c2)cc1 [1-(3-chlorophenyl)-3-[4-(dimethylamino)phenyl]urea] | > 407 | 
9 | Clc1ccc(-n2ncc3c(NCc4ccccn4)ncnc32)cc1 [1-(4-chlorophenyl)-N-(2-pyridinylmethyl)-4-pyrazolo[3,4-d]pyrimidinamine] | 2290 | 
10 | COc1ccc2nc(Nc3nc(C)c(C(C)=O)s3)sc2c1 [1-[2-[(6-methoxy-1,3-benzothiazol-2-yl)amino]-4-methyl-1,3-thiazol-5-yl]ethanone] | > 1220 | 
11 | O=C(Cc1ccccc1)n1nc(-c2ccccc2)nc1NCc1ccco1 [1-[5-(2-furanylmethylamino)-3-phenyl-1,2,4-triazol-1-yl]-2-phenylethanone] | > 11000 | 
12 | Fc1cnc(N2CCOCC2)nc1N1CCc2ccccc21 [1-[5-fluoro-2-(4-morpholinyl)-4-pyrimidinyl]indoline] |  | 10200
13 | CCOC(=O)C1CCN(S(=O)(=O)c2ccc(-c3nc4ccccc4s3)s2)CC1 [1-[[5-(1,3-benzothiazol-2-yl)-2-thienyl]sulfonyl]isonipecotic acid ethyl ester] | 1720 | 
14 | COc1ccc2c(c1)CCc1c(C(=O)N3CCCCCC3)noc1-2 [1-azepanyl-(7-methoxy-4,5-dihydrobenzo[g][1,2]benzoxazol-3-yl)methanone] | 1570 | 
15 | COc1ccc(CNC(=O)NC2CCCCC2)cc1 [1-cyclohexyl-3-[(4-methoxyphenyl)methyl]urea] | > 99000 | 
16 | COc1ccc(-c2cc(C(=O)N3CCCCC3)no2)cc1OC [1-{[5-(3,4-dimethoxyphenyl)isoxazol-3-yl]carbonyl}piperidine] | 3920 | 
17 | Cc1cc(C(=O)OCC(=O)N2CCc3ccccc32)c(C)o1 [2,5-dimethyl-3-furancarboxylic acid [2-(2,3-dihydroindol-1-yl)-2-oxoethyl] ester] | 897 | 
18 | CC(C)(C)n1ncc2c(=O)n(CC(=O)NCc3ccccc3Cl)cnc21 [2-(1-tert-butyl-4-keto-pyrazolo[3,4-d]pyrimidin-5-yl)-N-(2-chlorobenzyl)acetamide] | > 136 | 
19 | COc1cc(N2CCCC2)c(OC)cc1C=c1sc2nc3ccccc3n2c1=O [2-(2,5-dimethoxy-4-pyrrolidino-benzylidene)thiazolo[3,2-a]benzimidazol-1-one] | 11000 | 
20 | CCn1c(SCC(=O)c2cccs2)nnc1-c1ccco1 [2-(4-Ethyl-5-furan-2-yl-4H-[1,2,4]triazol-3-ylsulfanyl)-1-thiophen-2-yl-ethanone] | 5820 | 
21 | CN(C)c1oc(-c2ccc(OCc3ccccc3)cc2)nc1C#N [2-(4-benzoxyphenyl)-5-(dimethylamino)oxazole-4-carbonitrile] | 2220 | 
22 | CCOc1ccc(N2C(=O)c3ccccc3C2O)cc1 (stereo not given) [2-(4-ethoxyphenyl)-3-hydroxy-3H-isoindol-1-one] | 886 | 
23 | O=C(CSc1nc2ccccc2o1)Nc1nc2ccccc2s1 [2-(Benzooxazol-2-ylsulfanyl)-N-benzothiazol-2-yl-acetamide] | > 11000 | 
24 | Cc1cccc(-n2ccnc2SCC(=O)Nc2nccs2)c1 [2-[1-(3-methylphenyl)imidazol-2-yl]sulfanyl-N-(1,3-thiazol-2-yl)acetamide] | > 11000 | 
25 | C=CCn1c(C)cc(C(=O)CSc2nc(O)c3ccccc3n2)c1C [2-[2-(2,5-dimethyl-1-prop-2-enyl-pyrrol-3-yl)-2-oxidanylidene-ethyl]sulfanyl-1H-quinazolin-4-one] | 609 | 

Row | Compound | EC50 [nM] | EC50 [1] [nM]
26 | OCCOCCNc1ncnc2c1cnn2-c1ccc(Cl)cc1 [2-[2-[[1-(4-chlorophenyl)-4-pyrazolo[3,4-d]pyrimidinyl]amino]ethoxy]ethanol] | 595 | 
27 | CCOC(=O)CSc1nc2ccccc2c(=O)n1NC(=O)c1ccccc1 [2-[(3-benzamido-4-keto-quinazolin-2-yl)thio]acetic acid ethyl ester] | 933 | 
28 | CCc1nnc(NC(=O)CSc2nc3c(cc2C#N)CCC3)s1 [2-[(3-cyano-1-pyrindan-2-yl)thio]-N-(5-ethyl-1,3,4-thiadiazol-2-yl)acetamide] | > 407 | 
29 | CCOC(=O)CSc1nc(-c2ccncc2)ccc1C#N [2-[(3-cyano-6-pyridin-4-yl-2-pyridinyl)thio]acetic acid ethyl ester] | 1710 | 
30 | Cc1csc2nc(CSc3nc4ccccc4o3)cn12 [2-[(3-methyl-6-imidazo[2,1-b]thiazolyl)methylthio]-1,3-benzoxazole] | 3920 | 
31 | Nn1c(SCC(=O)Nc2ccc(F)cc2F)nnc1-c1cccnc1 [2-[(4-amino-5-pyridin-3-yl-1,2,4-triazol-3-yl)sulfanyl]-N-(2,4-difluorophenyl)acetamide] | 6790 | 
32 | CCc1nnc(NC(=O)CSc2nc(C)c3c(c2C#N)CCCC3)s1 [2-[(4-cyano-1-methyl-5,6,7,8-tetrahydroisoquinolin-3-yl)sulfanyl]-N-(5-ethyl-1,3,4-thiadiazol-2-yl)acetamide] | 1230 | 
33 | O=C1CCCC(=O)C1=CNc1ccc(O)cc1 [2-[(4-hydroxyanilino)methylidene]cyclohexane-1,3-dione] | > 99000 | 
34 | CCOC(=O)CSc1nc(-c2ccc3c(c2)OCO3)ccc1C#N [2-[[6-(1,3-benzodioxol-5-yl)-3-cyano-2-pyridinyl]thio]acetic acid ethyl ester] | 5650 | 
35 | O=C(CNc1ccccc1)Nc1ccc(F)cc1 [2-anilino-N-(4-fluorophenyl)acetamide] | 3190 | 
36 | Cc1nc2sc(-c3ccccc3)cc2c(=O)n1-n1cccc1 [2-methyl-6-phenyl-3-(1-pyrrolyl)-4-thieno[2,3-d]pyrimidinone] | 112 | 
37 | Cc1ccc(C(=O)Nc2nnc(-c3cccs3)s2)cc1C [3,4-dimethyl-N-(5-thiophen-2-yl-1,3,4-thiadiazol-2-yl)benzamide] | 786 | 
38 | Cc1ccc(-n2c(C)cc(C(=O)COC(=O)c3c(C)noc3C)c2C)cc1 [3,5-dimethyl-4-isoxazolecarboxylic acid [2-[2,5-dimethyl-1-(4-methylphenyl)-3-pyrrolyl]-2-oxoethyl] ester] | 1630 | 
39 | COc1cc(C2c3c(c(O)n(-c4ccccc4)c3O)ON2c2ccccc2)ccc1O (stereo not given) [3-(3-methoxy-4-oxidanyl-phenyl)-2,5-diphenyl-3a,6a-dihydro-3H-pyrrolo[3,4-d][1,2]oxazole-4,6-dione] | > 33000 | 
40 | COc1ccc2nc3sc(C(=O)NCc4cccs4)c(N)c3cc2c1 [3-Amino-6-methoxy-thieno[2,3-b]quinoline-2-carboxylic acid (thiophen-2-ylmethyl)-amide] | > 407 | 
41 | O=c1c2ccccc2nnn1CSc1nnc(COc2ccc(Cl)cc2)n1Cc1ccco1 [3-[[5-[(4-chloranylphenoxy)methyl]-4-(furan-2-ylmethyl)-1,2,4-triazol-3-yl]sulfanylmethyl]-1,2,3-benzotriazin-4-one] | 3690 | 
42 | COc1cccc(C(=O)Nc2cccc(-c3nnc(-c4ccccc4)o3)c2)c1 [3-methoxy-N-[3-(5-phenyl-1,3,4-oxadiazol-2-yl)phenyl]benzamide] | 1730 | 
43 | COc1ccc(-c2nc3c(Br)c(N)c(Br)cc3o2)cc1 [4,6-bis(bromanyl)-2-(4-methoxyphenyl)-1,3-benzoxazol-5-amine] | 693 | 
44 | c1ccc2nc3c(nc2c1)c1ccccc1n3CCN1CCOCC1 [4-(2-indolo[3,2-b]quinoxalin-6-ylethyl)morpholine] |  | 11300
45 | COc1ccc(CNc2ccc(C(=O)O)cc2)cc1 [4-(p-anisylamino)benzoic acid] | 1500 | 
46 | CCCOC(=O)c1ccc(NC(=O)C2CCCO2)cc1 (stereo not given) [4-(tetrahydrofuran-2-carbonylamino)benzoic acid propyl ester] | > 3670 | 
47 | COc1cccc2c(O)c(C(=O)NCc3cccs3)cnc12 [4-Hydroxy-8-methoxy-quinoline-3-carboxylic acid (thiophen-2-ylmethyl)-amide] | 3120 | 
48 | Cc1cccnc1Nc1nc(-c2ccc(O)cc2O)cs1 [4-[2-(3-Methyl-pyridin-2-ylamino)-thiazol-4-yl]-benzene-1,3-diol] | 1890 | 
49 | CC(C)(CC(=O)O)Cc1nc(-c2ccc(Cl)cc2)no1 [4-[3-(4-chlorophenyl)-1,2,4-oxadiazol-5-yl]-3,3-dimethyl-butanoic acid] | > 11000 | 
50 | CCOC(=O)N1CCN(S(=O)(=O)c2ccc(C(=O)Nc3sc4c(c3C#N)CCC4)cc2)CC1 [4-[4-[(3-cyano-5,6-dihydro-4H-cyclopenta[b]thiophen-2-yl)carbamoyl]phenyl]sulfonylpiperazine-1-carboxylic acid ethyl ester] | 636 | 
